Usually Ki stands for a dissociation constant, usually derived from enzyme kinetics or from competition with a known ligand.

The assay addresses T1, RihA (Escherichia coli, UniProt P41409).
T1 construct: full-length rihA (936 bp) from E. coli K12 derivative DH5α; N-terminal His-tag removed with thrombin; tetramer
In words: X-ray co-crystal structure at […] Å; KI from competitive inhibition of uridine hydrolysis by purified enzyme. It is filed as biochemical.

T1 sequence (P41409 whole entry): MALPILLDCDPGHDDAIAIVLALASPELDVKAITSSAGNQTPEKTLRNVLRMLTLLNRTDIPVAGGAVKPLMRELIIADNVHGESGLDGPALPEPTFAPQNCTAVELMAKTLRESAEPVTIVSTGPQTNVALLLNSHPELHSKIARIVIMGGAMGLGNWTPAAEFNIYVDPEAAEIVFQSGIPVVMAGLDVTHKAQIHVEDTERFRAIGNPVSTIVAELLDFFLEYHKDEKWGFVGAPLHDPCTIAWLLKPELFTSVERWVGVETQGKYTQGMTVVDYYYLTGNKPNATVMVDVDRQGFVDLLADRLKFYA

In turn, `Nc1ccc([C@@H]2N[C@H](CO)[C@@H](O)[C@H]2O)cc1N` [DAPIR] returned a Ki of 85 ± 7 µM.

The values above are taken from publication PMC2898832, “Active site plasticity revealed from the structure of the enterobacterial N-ribohydrolase RihA bound to a competitive inhibitor” (2010).
